Experiments:
[1] = tested on: Monocotyledonous and dicotyledonous test plants; experiment: Herbicidal action before emergence of the plants (pre-emergence action); type: in vivo; details: evaluated after 3 weeks, nine-step scale; for pre-emergence action, Cyperus / pre-emergence action, Ipomoea / pre-emergence action, Setaria / pre-emergence action, Sinapis / pre-emergence action, Solanum / pre-emergence action, Stellaria: 2000 g/ha; for Pre-emergence action, Abutilon / Pre-emergence action, Amaranthus / Pre-emergence action, Chenop. / Pre-emergence action, Digitaria / Pre-emergence action, Echino. / Pre-emergence action, Panicum: 250 g/ha
Procedure: Monocotyledonous and dicotyledonous test plants are sown in standard soil in plastic pots. Immediately after sowing, the test substances as aqueous suspensions (prepared with a 25% wettable powder (Example F3, b) in accordance with WO 97/34485) or as emulsions (prepared with a 25% emulsion concentrate (Example F1, c)) are sprayed on at a rate of 2 kg of a.i./ha or 250 g of a.i./ha (500 l of water/ha). The test plants are then grown in the greenhouse under optimal conditions. After a test period of 3 weeks, the experiment is evaluated with reference to a nine-step scale (1=complete damage, 9=no effect). Score figures of 1 to 4 (in particular 1 to 3) mean a good to very good herbicidal action.

[2] = tested on: Monocotyledonous and dicotyledonous test plants; experiment: Post-emergence herbicidal action; type: in vivo; details: evaluated after approximately 18 days; for Post-emergence action, Ipomoea / Post-emergence action, Lolium / Post-emergence action, Setaria / Post-emergence action, Sinapis / Post-emergence action, Solanum / Post-emergence action, Stellaria: 2000 g/ha, sprayed in 4- to 6-leaf stage, nine-step scale; for Post-emergence action: Abutilon (score, nine-step scale) / Post-emergence action: Chenop. (score, nine-step scale) / Post-emergence action: Digitaria (score, nine-step scale) / Post-emergence action: Echino. (score, nine-step scale) / Post-emergence action: Ipopur. (score, nine-step scale) / Post-emergence action: Panicum (score, nine-step scale) / Post-emergence action: Xanth. (score, nine-step scale): 250 g/ha, sprayed at 4- to 6-leaf stage
Procedure: Monocotyledonous and dicotyledonous test plants are grown in the greenhouse in plastic pots containing standard soil, and, in the 4- to 6-leaf stage, sprayed with an aqueous suspension of the test substances of the formula I prepared with a 25% wettable powder (Example F3, b) in accordance with WO 97/34485) or with an emulsion of the test substances of the formula I prepared with a 25% emulsion concentrate (Example F1, c) in accordance with WO 97/34485), corresponding to a rate of 2 kg of a.i./ha or 250 g of a.i./ha (500 l of water/ha). The test plants are subsequently grown on in the greenhouse under optimal conditions. After a test period of approximately 18 days, the test is evaluated with reference to a nine-step scale (1=complete damage, 9=no effect). Score figures of 1 to 4 (in particular 1 to 3) mean a good to very good herbicidal action. In this test, the compounds of the formula I show a potent herbicidal action.

SMILES | pre-emergence action, Cyperus [1] | pre-emergence action, Ipomoea [1] | pre-emergence action, Setaria [1] | pre-emergence action, Sinapis [1] | pre-emergence action, Solanum [1] | pre-emergence action, Stellaria [1] | Post-emergence action, Ipomoea [2] | Post-emergence action, Lolium [2] | Post-emergence action, Setaria [2] | Post-emergence action, Sinapis [2] | Post-emergence action, Solanum [2] | Post-emergence action, Stellaria [2] | further results
Cc1nc(C(F)(F)F)ccc1C(=O)C1=C(O)C(C)CC(C)C1=O (stereo not drawn) [A2-B46 (cis)] | 1 | 2 | 1 | 2 | 1 | 2 | 1 | 2 | 3 | 1 | 2 | 2 | –
Cc1nc(C(F)(F)F)ccc1C(=O)C1=C(O)C(C)CC(C)C1=O (stereo not drawn) [A2-B46 (trans)] | 1 | 2 | 1 | 2 | 1 | 2 | 1 | 2 | 2 | 1 | 1 | 2 | –
Cc1nc(C(F)(F)F)ccc1C(=O)C1=C(O)C(C)CCC1=O (stereo not shown) [Compound A2-B2] | 1 | 1 | 1 | 1 | 1 | 2 | 1 | 2 | 2 | 1 | 2 | 2 | –
CCC1(C)CCC(=O)C(C(=O)c2ccc(C(F)(F)F)nc2C)=C1O (stereo not shown) [Compound A2-B25] | 2 | 3 | 2 | 2 | 1 | 2 | 1 | 2 | 2 | 2 | 1 | 2 | –
Cc1nc(C(F)(F)F)ccc1C(=O)C1=C(O)C(C)(S(C)(=O)=O)CCC1=O (stereo not shown) [Compound A2-B31] | 2 | 3 | 4 | 2 | 1 | 2 | 2 | 2 | 2 | 1 | 2 | 2 | –
COC1(C)CCC(=O)C(C(=O)c2ccc(C(F)(F)F)nc2C)=C1O (stereo not shown) [Compound A2-B33] | 1 | 3 | 2 | 2 | 1 | 3 | 2 | 4 | 2 | 1 | 2 | 2 | –
COC(=O)C1C(O)=C(C(=O)c2ccc(C(F)(F)F)nc2C)C(=O)CC1C (stereo not shown) [Compound A2-B144] | 3 | 4 | 2 | 2 | 2 | 4 | – | – | – | – | – | – | –
Cc1nc(C(F)(F)F)ccc1C(=O)C1=C(O)C(C)(C)OCC1=O [Compound A2-B552] | 1 | 2 | 2 | 2 | 1 | 2 | – | – | – | – | – | – | –
COC(=O)C1(OC)CCC(=O)C(C(=O)c2ccc(C(F)(F)F)nc2C)=C1O (stereo not shown) [Compound A2-B1067] | 2 | 3 | 2 | 2 | 3 | 3 | – | – | – | – | – | – | –
COCc1nc(C(F)(F)F)ccc1C(=O)C1=C(O)CC(C)(C)CC1=O [Compound A8-B1063] | – | – | – | – | – | – | – | – | – | – | – | – | Pre-emergence action, Abutilon [1]: 2; Pre-emergence action, Amaranthus [1]: 4; Pre-emergence action, Chenop. [1]: 1; Pre-emergence action, Digitaria [1]: 3; Pre-emergence action, Echino. [1]: 3; Pre-emergence action, Panicum [1]: 2
COCc1nc(C(F)(F)F)ccc1C(=O)C1=C(O)C(C)C2CC2C1=O (stereo not shown) [Compound A8-D109] | – | – | – | – | – | – | – | – | – | – | – | – | Post-emergence action: Abutilon (score, nine-step scale) [2]: 3; Post-emergence action: Chenop. (score, nine-step scale) [2]: 3; Post-emergence action: Digitaria (score, nine-step scale) [2]: 3; Post-emergence action: Echino. (score, nine-step scale) [2]: 3; Post-emergence action: Ipopur. (score, nine-step scale) [2]: 2; Post-emergence action: Panicum (score, nine-step scale) [2]: 3; Post-emergence action: Xanth. (score, nine-step scale) [2]: 1
CCOC(=O)C1(C)C(O)=C(C(=O)c2ccc(C(F)(F)F)nc2COC)C(=O)C2CC21 (stereo not shown) [Compound A8-D111] | – | – | – | – | – | – | – | – | – | – | – | – | Post-emergence action: Abutilon (score, nine-step scale) [2]: 3; Post-emergence action: Chenop. (score, nine-step scale) [2]: 3; Post-emergence action: Digitaria (score, nine-step scale) [2]: 3; Post-emergence action: Echino. (score, nine-step scale) [2]: 3; Post-emergence action: Ipopur. (score, nine-step scale) [2]: 2; Post-emergence action: Panicum (score, nine-step scale) [2]: 3; Post-emergence action: Xanth. (score, nine-step scale) [2]: 1
COCc1nc(C(F)(F)F)ccc1C(=O)C1=C(O)CCC=C(C)C1=O [Compound A8-F5] | – | – | – | – | – | – | – | – | – | – | – | – | Post-emergence action: Abutilon (score, nine-step scale) [2]: 3; Post-emergence action: Chenop. (score, nine-step scale) [2]: 3; Post-emergence action: Digitaria (score, nine-step scale) [2]: 3; Post-emergence action: Echino. (score, nine-step scale) [2]: 4; Post-emergence action: Ipopur. (score, nine-step scale) [2]: 3; Post-emergence action: Panicum (score, nine-step scale) [2]: 4; Post-emergence action: Xanth. (score, nine-step scale) [2]: 3
Cc1nc(C(F)(F)C(F)(F)F)ccc1C(=O)C1=C(O)C(C)(C)CCC1=O [Compound A34-B24] | – | – | – | – | – | – | 1 | 2 | 2 | 1 | 2 | 2 | –
Cc1nc(C(F)(F)C(F)(F)C(F)(F)F)ccc1C(=O)C1=C(O)CCCC1=O [Compound A64-B1] | – | – | – | – | – | – | 2 | 3 | 4 | 1 | 1 | 2 | –
Cc1cc(C(F)(F)F)ncc1C(=O)C1=C(O)C(C)(C)CCC1=O [Compound A531-B24] | – | – | – | – | – | – | 2 | 2 | 2 | 1 | 2 | 2 | –
COc1nc(C(F)(F)F)ccc1C(=O)C1=C(O)C(C)(C)CCC1=O [Compound A1022-B24] | – | – | – | – | – | – | – | – | – | – | – | – | Pre-emergence action, Abutilon [1]: 3; Pre-emergence action, Amaranthus [1]: 4; Pre-emergence action, Chenop. [1]: 1; Pre-emergence action, Digitaria [1]: 4; Pre-emergence action, Echino. [1]: 4; Pre-emergence action, Panicum [1]: 2
Cc1c(C(=O)C2=C(O)CCCC2=O)ccc(C(F)(F)F)[n+]1[O-] [Compound A1210-B1, 3-Hydroxy-2-(2-methyl-1-oxy-6-trifluoromethylpyridine-3-carbonyl)cyclohex-2-enone] | – | – | – | – | – | – | – | – | – | – | – | – | Post-emergence action: Abutilon (score, nine-step scale) [2]: 2; Post-emergence action: Chenop. (score, nine-step scale) [2]: 1; Post-emergence action: Digitaria (score, nine-step scale) [2]: 2; Post-emergence action: Echino. (score, nine-step scale) [2]: 2; Post-emergence action: Ipopur. (score, nine-step scale) [2]: 2; Post-emergence action: Panicum (score, nine-step scale) [2]: 2; Post-emergence action: Xanth. (score, nine-step scale) [2]: 2
